Where “and” joins values, the source holds several entries; their conditions need not be identical. Equal values may be shown once. Toxic doses and inconclusive results are not listed. How the source made its calls: active means survival T/C of 150% or more; inactive means T/C below 125% in these data.
Test system: P388 leukemia ip, CD2F1 mice, survival T/C
Test: NCI In Vivo Anticancer Drug Screen. Data for tumor model P388 Leukemia (intraperitoneal) in CD2F1 (CDF1) mice
Settings: endpoint: median survival time, higher = longer survival
Method in brief: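 Mice carrying the transplanted tumor received test compound or vehicle. Survival was recorded in each group, and the value is the treated-group measurement divided by that of the vehicle-treated control group.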

[1] = dose: 50.0 mg/kg/injection, schedule: Q01DX009 (ip), vehicle: Klucel (hydroxypropylcellulose) (HPC)
[2] = dose: 50.0 mg/kg/injection, schedule: Q01DX009 (ip), vehicle: other
[3] = dose: 100.0 mg/kg/injection, schedule: Q01DX009 (ip), vehicle: other
[4] = dose: 200.0 mg/kg/injection, schedule: Q01DX009 (ip), vehicle: other
[5] = dose: 50.0 mg/kg/injection, schedule: Q01DX005 (ip), vehicle: saline with Tween-80
[6] = dose: 100.0 mg/kg/injection, schedule: Q01DX005 (ip), vehicle: saline with Tween-80
[7] = dose: 200.0 mg/kg/injection, schedule: Q01DX005 (ip), vehicle: saline with Tween-80
[8] = dose: 60.0 mg/kg/injection, schedule: Q01DX005 (ip), vehicle: Klucel + Tween-80
[9] = dose: 120.0 mg/kg/injection, schedule: Q01DX005 (ip), vehicle: Klucel + Tween-80
[10] = dose: 240.0 mg/kg/injection, schedule: Q01DX005 (ip), vehicle: Klucel + Tween-80
[11] = dose: 25.0 mg/kg/injection, schedule: Q01DX009 (ip), vehicle: saline
[12] = dose: 50.0 mg/kg/injection, schedule: Q01DX009 (ip), vehicle: saline with Tween-80
[13] = dose: 100.0 mg/kg/injection, schedule: Q01DX009 (ip), vehicle: saline with Tween-80
[14] = dose: 200.0 mg/kg/injection, schedule: Q01DX009 (ip), vehicle: saline with Tween-80
[15] = dose: 50.0 mg/kg/injection, schedule: Q01DX009 (ip), vehicle: saline
[16] = dose: 100.0 mg/kg/injection, schedule: Q01DX009 (ip), vehicle: saline

Measured: T/C

CCOS(=O)c1ccc(C)cc1 (centres undefined)
inactive: dose: 12.5 mg/kg/injection, schedule: Q01DX009 (ip), vehicle: Klucel (hydroxypropylcellulose) (HPC) 98 % of control | dose: 25.0 mg/kg/injection, schedule: Q01DX009 (ip), vehicle: Klucel (hydroxypropylcellulose) (HPC) 98 % of control | [1] 105 % of control and 110 % of control

O=CN1CCCC1Cc1ccccc1 (centres undefined)
inactive: dose: 50.0 mg/kg/injection, schedule: Q01DX001 (ip), vehicle: Klucel (hydroxypropylcellulose) (HPC) 101 % of control | dose: 100.0 mg/kg/injection, schedule: Q01DX001 (ip), vehicle: Klucel (hydroxypropylcellulose) (HPC) 96 % of control

Nc1ccc(Br)cc1N
active: dose: 200.0 mg/kg/injection, schedule: Q01DX009 (ip), vehicle: distilled water + Tween-80 + alcohol 150 % of control
inactive: dose: 50.0 mg/kg/injection, schedule: Q01DX009 (ip), vehicle: distilled water + Tween-80 + alcohol 111 % of control | [2] 100 % of control | dose: 50.0 mg/kg/injection, schedule: Q01DX009 (ip), vehicle: saline + Tween-80 + alcohol 95 % of control | dose: 100.0 mg/kg/injection, schedule: Q01DX009 (ip), vehicle: distilled water + Tween-80 + alcohol 120 % of control | [3] 98 % of control | dose: 100.0 mg/kg/injection, schedule: Q01DX009 (ip), vehicle: saline + Tween-80 + alcohol 107 % of control | [4] 106 % of control | dose: 200.0 mg/kg/injection, schedule: Q01DX009 (ip), vehicle: saline + Tween-80 + alcohol 99 % of control

S=C(S)n1nc(-c2ccccc2)c(N=Nc2ccc(Cl)cc2Cl)c1-c1ccccc1
inactive: [5] 94 % of control | [6] 89 % of control | [7] 89 % of control

CN1C(=S)C(=N)OC1c1ccc(Cl)cc1Cl (centres undefined)
inactive: [8] 102 % of control | [9] 94 % of control | [10] 96 % of control

Cc1ccc2c[n+]3ccccc3c(-c3ccccc3)c2c1
inactive: dose: 1.56 mg/kg/injection, schedule: Q04DX003 (ip), vehicle: Klucel (hydroxypropylcellulose) (HPC) 100 % of control | dose: 3.12 mg/kg/injection, schedule: Q04DX003 (ip), vehicle: Klucel (hydroxypropylcellulose) (HPC) 100 % of control

Cc1nc(N)nc(N)c1N1CCN(c2ccc(C(=O)NC(C(=O)O)C(=O)O)cc2)CC1
inactive: dose: 15.0 mg/kg/injection, schedule: Q01DX005 (ip), vehicle: Klucel + Tween-80 87 % of control
active: dose: 3.75 mg/kg/injection, schedule: Q01DX005 (ip), vehicle: Klucel + Tween-80 184 % of control | dose: 7.5 mg/kg/injection, schedule: Q01DX005 (ip), vehicle: Klucel + Tween-80 215 % of control

Cn1cc(C(=O)O)c(=O)c2ccc(/C=C/c3ccc([N+](=O)[O-])o3)nc21
inactive: dose: 3.12 mg/kg/injection, schedule: Q01DX009 (ip), vehicle: saline 92 % of control | dose: 6.25 mg/kg/injection, schedule: Q01DX009 (ip), vehicle: saline 97 % of control | dose: 12.5 mg/kg/injection, schedule: Q01DX009 (ip), vehicle: saline 111 % of control | [11] 103 % of control

COc1ccc(CC(C#N)c2ccccc2)cc1 (centres undefined)
inactive: dose: 25.0 mg/kg/injection, schedule: Q04DX003 (ip), vehicle: saline 99 % of control | dose: 50.0 mg/kg/injection, schedule: Q04DX003 (ip), vehicle: saline 104 % of control | dose: 100.0 mg/kg/injection, schedule: Q04DX003 (ip), vehicle: saline 103 % of control | dose: 200.0 mg/kg/injection, schedule: Q04DX003 (ip), vehicle: saline 99 % of control

C#CCSc1nnnn1-c1ccccc1
inactive: [12] 98 % of control | [13] 90 % of control | [14] 90 % of control

O=C1CC2C3C1N(c1ccc(Cl)cc1)C1(Nc4ccc(Cl)cc4)C(=O)CC(C31)N2c1ccc(Cl)cc1 (centres undefined)
inactive: dose: 7.5 mg/kg/injection, schedule: Q01DX005 (ip), vehicle: Klucel (hydroxypropylcellulose) (HPC) 104 % of control | dose: 15.0 mg/kg/injection, schedule: Q01DX005 (ip), vehicle: Klucel (hydroxypropylcellulose) (HPC) 101 % of control | dose: 30.0 mg/kg/injection, schedule: Q01DX005 (ip), vehicle: Klucel (hydroxypropylcellulose) (HPC) 92 % of control

CCOC(=O)NCCCCC([NH-])C(=O)O.CCOC(=O)NCCCCC([NH-])C(=O)O.[Cu+2] (centres undefined)
inactive: [15] 101 % of control | [16] 92 % of control

CC(=O)N(c1c(N)[nH]c(=O)n(C)c1=O)C1OC(CO)C(O)C(O)C1O (centres undefined)
inactive: dose: 60.0 mg/kg/injection, schedule: Q01DX005 (ip), vehicle: saline 99 % of control | dose: 120.0 mg/kg/injection, schedule: Q01DX005 (ip), vehicle: saline 99 % of control | dose: 240.0 mg/kg/injection, schedule: Q01DX005 (ip), vehicle: saline 97 % of control

COc1ccc(/C=N/NC(=O)CNC(=O)n2ccnc2)cc1
inactive: [5] 100 % of control | [6] 92 % of control | [7] 91 % of control

Cc1ccn2ccnc2c1
inactive: dose: 50.0 mg/kg/injection, schedule: Q01DX009 (ip), vehicle: acetone 102 % of control | dose: 100.0 mg/kg/injection, schedule: Q01DX009 (ip), vehicle: acetone 113 % of control

c1cc(-c2cc(-c3cc(-c4ccncc4)n[nH]3)[nH]n2)ccn1
inactive: [8] 91 % of control | [9] 100 % of control | [10] 91 % of control

CNC1C(O)C(OC2C(N)CC(N)C(OC3OC(CN)=CCC3N)C2O)OCC1(C)O (centres undefined)
inactive: dose: 62.5 mg/kg/injection, schedule: Q01DX009 (ip), vehicle: saline 104 % of control | dose: 125.0 mg/kg/injection, schedule: Q01DX009 (ip), vehicle: saline 104 % of control

CC(C)N1C(=O)C2C3C=CC(C2C1=O)C1C2C(=O)N(C(C)C)C(=O)C2C31 (centres undefined)
inactive: dose: 100.0 mg/kg/injection, schedule: Q01DX001 (ip), vehicle: saline with Tween-80 99 % of control | dose: 200.0 mg/kg/injection, schedule: Q01DX001 (ip), vehicle: saline with Tween-80 96 % of control | dose: 400.0 mg/kg/injection, schedule: Q01DX001 (ip), vehicle: saline with Tween-80 89 % of control

CCOC(=O)c1cc(NC(C)=O)c(C)n1C
inactive: dose: 100.0 mg/kg/injection, schedule: Q04DX003 (ip), vehicle: saline with Tween-80 107 % of control | dose: 200.0 mg/kg/injection, schedule: Q04DX003 (ip), vehicle: saline with Tween-80 116 % of control | dose: 400.0 mg/kg/injection, schedule: Q04DX003 (ip), vehicle: saline with Tween-80 112 % of control

CN1CCCN(C(c2ccccc2)c2ccc(Br)cc2)CC1 (centres undefined)
inactive: [11] 97 % of control | [15] 103 % of control | [16] 101 % of control and 91 % of control

Cc1nccc(N[N+](=O)[O-])c1C
inactive: dose: 12.5 mg/kg/injection, schedule: Q01DX009 (ip), vehicle: other 100 % of control | dose: 25.0 mg/kg/injection, schedule: Q01DX009 (ip), vehicle: other 93 % of control | [2] 117 % of control | [3] 100 % of control | [4] 103 % of control

[Na+]
inactive: [15] 95 % of control | [16] 100 % of control | dose: 200.0 mg/kg/injection, schedule: Q01DX009 (ip), vehicle: saline 98 % of control | dose: 0.5 % in 0.5 ml injection vol, schedule: Q01DX009 (ip), vehicle: water 105 % of control and 96 % of control | dose: 1.0 % in 0.5 ml injection vol, schedule: Q01DX009 (ip), vehicle: water 100 % of control and 96 % of control | dose: 2.0 % in 0.5 ml injection vol, schedule: Q01DX009 (ip), vehicle: water 102 % of control and 106 % of control | dose: 3.12 % in 0.5 ml injection vol, schedule: Q01DX009 (ip), vehicle: water 101 % of control and 92 % of control | dose: 4.0 % in 0.5 ml injection vol, schedule: Q01DX009 (ip), vehicle: water 100 % of control and 90 % of control | dose: 6.25 % in 0.5 ml injection vol, schedule: Q01DX009 (ip), vehicle: water 108 % of control and 114 % of control | dose: 8.0 % in 0.5 ml injection vol, schedule: Q01DX009 (ip), vehicle: water 99 % of control and 104 % of control and 108 % of control

O=C(c1ccccc1)C12CCC(CC1)C2
inactive: [1] 103 % of control | dose: 100.0 mg/kg/injection, schedule: Q01DX009 (ip), vehicle: Klucel (hydroxypropylcellulose) (HPC) 103 % of control | dose: 200.0 mg/kg/injection, schedule: Q01DX009 (ip), vehicle: Klucel (hydroxypropylcellulose) (HPC) 110 % of control

CCOC(=O)C(C(=O)OCC)C1CCC2(C)CCC(=O)C=C2C1 (centres undefined)
inactive: [12] 95 % of control | [13] 100 % of control | [14] 105 % of control

From PubChem BioAssay AID330 (DTP/NCI, 2004)
